Measurements: patent publication US20260207621A1 (Vividion Therapeutics, Inc., priority 2022, published 2026)

Columns and labels:
KEAP1 C151 = target: T1, KEAP1 C151 (Homo sapiens, UniProt Q14145); test: Nrf2 TMT measurement: in vitro TE50 for KEAP1 C151 (IA-DTB competition, targeted TMT mass spectrometry) in MDA-MB-468 cell lysate; type: binding; conditions: in vitro target engagement of KEAP1 C151, targeted TMT, read-out: KEAP1_C151 TE50
T1 construct: treating 500 μg of cell lysate generated from MDA-MB-468 breast cancer cells with DMSO or compound; endogenous in cells; host or cells: MDA-MB-468 breast cancer cell lysate
T1 sequence (Q14145 whole entry): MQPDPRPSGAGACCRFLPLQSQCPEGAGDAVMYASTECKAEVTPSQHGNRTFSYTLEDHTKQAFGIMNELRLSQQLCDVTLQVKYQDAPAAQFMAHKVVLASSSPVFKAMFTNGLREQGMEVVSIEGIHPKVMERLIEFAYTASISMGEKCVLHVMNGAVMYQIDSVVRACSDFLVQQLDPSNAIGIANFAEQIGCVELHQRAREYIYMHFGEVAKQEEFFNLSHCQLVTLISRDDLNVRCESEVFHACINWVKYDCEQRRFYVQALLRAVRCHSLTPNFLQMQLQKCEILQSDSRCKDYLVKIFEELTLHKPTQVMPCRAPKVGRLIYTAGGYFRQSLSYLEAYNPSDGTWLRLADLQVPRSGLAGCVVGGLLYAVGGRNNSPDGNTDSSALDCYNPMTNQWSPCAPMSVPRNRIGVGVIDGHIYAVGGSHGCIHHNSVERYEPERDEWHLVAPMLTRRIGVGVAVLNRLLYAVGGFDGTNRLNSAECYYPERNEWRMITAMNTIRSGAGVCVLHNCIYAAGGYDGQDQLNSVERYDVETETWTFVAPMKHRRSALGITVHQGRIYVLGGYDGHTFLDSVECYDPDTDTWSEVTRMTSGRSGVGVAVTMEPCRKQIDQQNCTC
Procedure: In vitro TE50 values for KEAP_C151 were obtained by treating 500 μg of cell lysate generated from MDA-MB-468 breast cancer cells with DMSO or compound for 1 hour at room temperature followed by the addition of 200 μM IA-DTB (in DMSO) for one hour at room temperature. Samples were then precipitated by the addition of 8× ice cold acetonitrile and incubated at −80° C. for two hours. Protein was then pelleted by centrifugation (4,200 RPM, 45 min, 4° C.). The pelleted material was resuspended in 9M Urea, 50 mM ammonium bicarbonate and proteins were reduced and alkylated by the addition of DTT and iodoacetamide (10 and 30 mM, respectively). Following reduction and alkylation, samples were exchanged into 2M urea (Zeba spin desalting plates, Thermo Fisher) and digested with Trypsin. IA-DTB labeled peptides were isolated with streptavidin agarose resin. Enriched peptides were eluted by the addition of 50% acetonitrile (ACN) 0.1% Formic Acid (FA) and dried in a SpeedVac vacuum concentrator.
Dried peptides were resuspended in 0.2 M EPPS pH 8.5 and treated with 6.5 μL of 11-plex tandem mass tag (TMT) (8.3 μg/μL in dry ACN) for 2 hours at room temperature. Reactions were quenched by the addition of 6.5 μL of 5% Hydroxylamine. Samples were then combined and desalted on a Biotage Evolute express ABN plate (600-0010-PX01).
Targeted TMT. Targeted TMT measurements were collected using an Orbitrap LumosTribrid Mass Spectrometer (Thermo Scientific) coupled to an UltiMate 3000 Series Rapid Separation LC system and autosampler (Thermo Scientific Dionex). Peptides were eluted onto a custom C18 capillary analytical column (75-μm inner diameter fused silica, packed with Acclaim PepMap C18 resin (Thermo Scientific)) using an Acclaim PepMap 100 (Thermo 164535) loading column, and separated at a flow rate of 1.0 μl min−1. Data were acquired using a specific MS3-based TMT method targeting the peptide containing KEAP1 C151 (C(+324.2)[…], +3 charge state) where MS2 peptide fragmentation is triggered upon detection of the peptide precursor ion. Subsequent MS3 analysis was then performed using pre-selected peptide fragment ions that were isolated for fragmentation using synchronous precursor selection. RAW files were converted to MZXML format and searched with the SEQUEST algorithm using the MassPike software package. TMT quantitation was performed with a filter requiring at least ten summed signal-to-noise for control channels. Quantified signals were used for dose response curve-fitting and IC50 calculation using R's drc package.

Nrf2 = Nrf2 antagonism assay: ARE luciferase reporter in KYSE-70 cells; type: cell-based; conditions: Homo sapiens, KYSE-70, KYSE-70 cells, positive Imax corresponds to Nrf2 antagonism, read-out: KYSE70 Cellular ARE Luciferase Imax (%)
Description: NRF2 binds to a promoter region, antioxidant response element (ARE), to initiate expression of multiple genes. ARE luciferase reporter assays are used to test whether a ligand can activate or repress the expression of target genes using luciferase as a reporter gene.
KYSE-70 is an esophageal squamous cell carcinoma cell line with a Nrf2 mutation at amino acid position W24C. This mutation lowers the affinity between the E3 ligase that includes KEAP1 and Nrf2, resulting in a state in which the synthesis rate of new Nrf2 is faster than the E3's degradation rate of Nrf2, resulting in a “Nrf2 high” state. In KYSE-70 cells, genes are inserted directly after the ARE that trigger the expression of luciferase. Without a NRF2 antagonist in this modified KYSE70 cell line which has an inherently “NRF2 high state”, luciferase is expressed, and a signal is observed.
Nrf2 antagonists bind at C151 of KEAP1 and stabilize the E3 which results in an increased degradation rate of Nrf2. Increased degradation of Nrf2 results in less expression of luciferase, and therefore a less intense signal.
An IC50 is generated from the dose-response curve and an Imax. A positive Imax corresponds to Nrf2 antagonism. Imax >90% correlates with in vivo tumor grown inhibition. Compounds with Imax >50% were included in this description.

SMILES	IC50 (KEAP1 C151) [nM]	Emax (Nrf2) [%]
C=CC(=O)N1CCOCC1c1cc(Cl)cc(-c2ccccc2)c1 (racemic) [Compound 1, 1-(3-(5-chloro-[1,1′-biphenyl]-3-yl)morpholino)prop-2-en-1-one]	410	56
C=CC(=O)N1CCOCC12COc1c(-c3ccccc3)cc(Cl)cc12 (racemic) [Compound 7, 1-(5-chloro-7-phenyl-2H-spiro[benzofuran-3,3′-morpholin]-4′-yl)prop-2-en-1-one]	5260	55
C=CC(=O)N1CCS(=O)(=O)CC1c1cc(Cl)cc(C2CCOCC2)c1 (racemic) [Compound 28, 1-(3-(3-chloro-5-(tetrahydro-2H-pyran-4-yl)phenyl)-1,1-dioxidothiomorpholino)prop-2-en-1-one]	150	50
C=CC(=O)N1CCS(=O)(=O)CC1c1cc(Cl)cc(-c2ccn(C)c(=O)c2)c1 (racemic) [Compound 29, 4-(3-(4-acryloyl-1,1-dioxidothiomorpholin-3-yl)-5-chlorophenyl)-1-methylpyridin-2(1H)-one]	330	62
C=CC(=O)N1CCCOCC1c1cc(Cl)cc(-c2ncnc(N)n2)c1 (racemic) [Compound 162, 1-(3-(3-(4-amino-1,3,5-triazin-2-yl)-5-chlorophenyl)-1,4-oxazepan-4-yl)prop-2-en-1-one]	600	80
C=CC(=O)N1CCOC[C@H]1c1cc(Cl)cc(-c2cccc(NC(C)=O)c2)c1 (single isomer, unassigned) [Compound 2]	10.7	52
C=CC(=O)N1CCOCC1c1cc(Cl)cc(C2CCOCC2)c1 (single isomer, unassigned) [Compound 5, 1-(3-(3-chloro-5-(tetrahydro-2H-pyran-4-yl)phenyl)morpholino)prop-2-en-1-one]	130	70
C=CC(=O)N1CCN(S(C)(=O)=O)CC1c1cc(Cl)cc(-c2ccnc(NC(C)=O)c2)c1 (single isomer, unassigned) [Compound 6, N-(4-(3-(1-acryloyl-4-(methylsulfonyl)piperazin-2-yl)-5-chlorophenyl)pyridin-2-yl)acetamide]	2.6	58
C=CC(=O)N1CCOCC1c1cc(C#N)cc(-c2ncccn2)c1 (single isomer, unassigned) [Compound 8, 3-(4-acryloylmorpholin-3-yl)-5-(pyrimidin-2-yl)benzonitrile]	55	53
C=CC(=O)N1CCOC[C@H]1c1cc(Cl)cc(-c2nnn(C)n2)c1 (single isomer, unassigned) [Compound 9]	60.5	76
C=CC(=O)N1CCOC[C@H]1c1cc(Cl)cc(-c2ncccn2)c1 (single isomer, unassigned) [Compound 10]	22.8	79
C=CC(=O)N1CCOCC1c1cc(Cl)cc(-c2cc[nH]c(=O)c2)c1 (single isomer, unassigned) [Compound 11, 4-(3-(4-acryloylmorpholin-3-yl)-5-chlorophenyl)pyridin-2(1H)-one]	67	79
C=CC(=O)N1CCOC[C@H]1c1cc(Cl)cc(-c2ccnc(N3CCCC3=O)c2)c1 (single isomer, unassigned) [Compound 12]	3.9	68
C=CC(=O)N1CCOC[C@H]1c1cc(Cl)cc(-c2ccn(C)c(=O)c2)c1 (single isomer, unassigned) [Compound 13]	50	72
C=CC(=O)N1CC2(CC2)OCC1(C)c1cc(Cl)cc(-c2ncnc(N)n2)c1 (single isomer, unassigned) [Compound 160, 1-(6-(3-(4-amino-1,3,5-triazin-2-yl)-5-chlorophenyl)-6-methyl-4-oxa-7-azaspiro[2.5]octan-7-yl)prop-2-en-1-one]		91
C=CC(=O)N1[C@H](C(N)=O)COC[C@H]1c1cc(Cl)nc(-c2ccc(F)c(C(N)=O)c2)c1 (single isomer, unassigned) [Compound 181]		66
C=CC(=O)N1CCOC[C@H]1c1cc(Cl)cc(-c2c[nH]c(=O)[nH]2)c1 (single isomer, unassigned) [Compound 184]		72

SMILES	IC50 (KEAP1 C151) [nM]	Emax (Nrf2) [%]
C=CC(=O)N1CCN(C(=O)C2CC2)C[C@H]1c1cc(Cl)cc(-c2ccnc(N)n2)c1 (single isomer, unassigned) [Compound 185]		94
C=CC(=O)N1CCN(C(=O)CC#N)C[C@H]1c1cc(Cl)cc(-c2ccnc(N)n2)c1 (single isomer, unassigned) [Compound 186]		83
C=CC(=O)N1CCN(C(=O)CC#N)C[C@H]1c1cc(Cl)cc(-c2ccnc(NC(=O)CC#N)n2)c1 (single isomer, unassigned) [Compound 189]		79
C=CC(=O)N1[C@H](c2cc(Cl)nc(-c3ccn4ccnc4c3)c2)COC[C@H]1C(F)F (single isomer, unassigned) [Compound 194]		84
C=CC(=O)N1CCN(C(=O)C2CC2)C[C@H]1c1cc(Cl)cc(-c2ccc(F)c(C(N)=O)c2)c1 (single isomer, unassigned) [Compound 195]		90
C=CC(=O)N1CCN(C(=O)C2CC2)C[C@H]1c1cc(Cl)cc(-c2nccc(N)n2)c1 (single isomer, unassigned) [Compound 196]		90
C=CC(=O)N1CCN(C(=O)C2CC2)C[C@H]1c1cc(Cl)cc(-c2cc(N)ncn2)c1 (single isomer, unassigned) [Compound 197]		87
C=CC(=O)N1CCOC[C@H]1c1cc(Cl)cc(-c2nc(N)nc(Cl)n2)c1 (single isomer, unassigned) [Compound 199]		92
C=CC(=O)N1CCN(C(=O)C2CC2)C[C@H]1c1cc(Cl)cc(-c2ncc(N)cn2)c1 (single isomer, unassigned) [Compound 200]		91
C=CC(=O)N1[C@H](c2cc(Cl)nc(-c3cc(N)ncn3)c2)COC[C@H]1C(F)F (single isomer, unassigned) [Compound 202]		94
[2H]c1nc(N)nc(-c2cc(Cl)cc([C@@H]3COCCN3C(=O)C=C)c2)n1 (single isomer, unassigned) [Compound 208]		94
C=CC(=O)N1CCOC[C@H]1c1cc(Cl)cc(-c2ncnc(NCCO)n2)c1 (single isomer, unassigned) [Compound 219]		81
Nc1ncnc(-c2cc(Cl)cc([C@@H]3COCCN3C(=O)C=C3CC3)c2)n1 (single isomer, unassigned) [Compound 293]		54
C=C(F)C(=O)N1CCOC[C@H]1c1cc(Cl)cc(-c2ncnc(N)n2)c1 (single isomer, unassigned) [Compound 297]		58
C=CC(=O)N1C[C@@H](F)COC[C@H]1c1cc(Cl)nc(-c2cc(N)ncn2)c1 [Compound 198, 1-((3R,6R)-3-(2-(6-aminopyrimidin-4-yl)-6-chloropyridin-4-yl)-6-fluoro-1,4-oxazepan-4-yl)prop-2-en-1-one]		93
C=CC(=O)N1[C@H](c2cc(Cl)nc(-c3cc(C)ncn3)c2)COC[C@H]1C(F)F [Compound 201, 1-((3R,5S)-3-(2-chloro-6-(6-methylpyrimidin-4-yl)pyridin-4-y1)-5-(difluoromethyl)morpholino)prop-2-en-1-one]		93
